Source: patent publication US20150268219A1, “Method for Renal Transplantation” (Universite Paris Diderot Paris 7, priority 2014, published 2015)

Columns and labels:
Type in all cases: cell-based, C57BL/6 mice
[1] = tested on: bone marrow-derived macrophages (BMM); experiment: Reactive oxygen species (ROS) assessment by DCFH fluorescence; conditions: BMM differentiated with 10 or 20 μM FeCl3-NTA for 7 days, LPS 150 ng/mL 3 hours; vs control macrophages
Protocol: (§1) Bone Marrow derived macrophages (BMM) were prepared from the femur and tibias of C57BL/6 mice between 6 and 8 weeks of age. Bone marrow cells were cultured for 7-8 days at 37° C. and 5% CO2 in at 2×10^6 cells/ml in RPMI 1640 medium (Invitrogen) containing 10% FBS (v/v; Biowest), penicillin/streptomycin and 15% supernatant of L929 cells (v/v) as a source of M-CSF in the presence or in the absence of FeCl3-nitrilotriacetate (FeCl3-NTA; 10-60 μM as indicated). In some conditions, lipopolysaccharide (LPS) (150 ng/ml) (Sigma-Aldrich), peptidoglycan (PGN) (15 μg/ml), Poly-IC (50 μg/ml) (all from cayla-Invivogen, Toulouse, France) were added 12 hours before BBMs analysis on day 8.
Bone-marrow derived macrophages (BMM) were stimulated by LPS (150 ng/ml) to induce ROS production. After 3 hours, BMM were washed with PBS and 5 μM dichlorodihydrofluorescein-diacetate (DCFH-DA) was added and incubated for 20 min at 37° C. Cells were washed again and taken to flow cytometer to ROS analysis. FeCl3-NTA was used as mentioned before and NaOH was used as vehicle.

[2] = tested on: bone marrow-derived macrophages (BMM); experiment: Cytokine production in culture supernatant of BMM stimulated with LPS; conditions: LPS-Fe-BMM vs LPS-BMM
Protocol: as §1
Kidney tissues were homogenized in 300 μl of RIPA buffer supplemented with phosphatase and protease inhibitors cocktail (Sigma-Aldrich) for 30 s. Samples were cooled on ice for 30 min. Lysates were finally centrifuged at 10 000 g at 4° C. The cytokines IL-6, TNF-α, MCP-1, IL-10 and IL-12 were measured simultaneously by cytometric bead array (CBA) using mouse inflammation kit (according to the manufacturer's instruction (BD biosciences). Results were analyzed using FCAP array software. Proteins were quantified in supernatants by the bicinchoninic acid (BCA) method according to the manufacturer's instructions (Pierce). Cytokine concentrations were normalized to total protein concentration and expressed as picograms per milligram of total tissue protein.

[3] = tested on: bone marrow-derived macrophages (BMM); experiment: Differentiation and TLR-agonist activation (CD86) of bone marrow-derived macrophages cultured with iron
Protocol: as §1
Cells suspensions were prepared from cell culture or tissue and were incubated with anti-FcγR mAb 2.4G2 to block IgG receptors before cell staining for specific surface markers. Cells (1·10^6) were then stained at 4° C. in PBS containing 1% BSA with antibodies against mouse CD11b (M1/70, BioLegend), F4/80 (BM8, eBioscience), CD86 (GL-1, BioLegend), Ly6G (1A8, BD Biosciences), Ly6C (HK1.4, BioLegend). The presence of macrophages (CD11b^+F4/80^+Ly6G^− cells) in the peritoneum was analyzed by flow cytometry.

[4] = tested on: bone marrow-derived macrophages (BMM); experiment: Comparative gene-chip analysis of macrophages treated or not with soluble iron and LPS; conditions: data not shown
Protocol: as §1
To further investigate whether iron load could influence macrophage activation, the inventors analyzed responses to TLR agonists. […] Increased iron levels in cultures promoted macrophage unresponsiveness to LPS both when it was added at the onset of cultures from primary bone marrow progenitors (day 0) or to cultures of almost completely differentiated cells (90% CD11b+ and F4/80+BMM; day 4) (data not shown). Thus, increased extracellular iron load impairs macrophage activation. To gain insight into the molecular mechanisms involved in iron load-dependent inhibition of macrophage inflammatory responses, the inventors performed comparative gene-chip analysis of macrophages treated or not with soluble iron (Fe-NTA, 60 μM) and subjected or not to LPS treatment. Venn diagram analysis from Affymetrix® microarray chips confirmed that the overall response to LPS differed between control (BMM) and iron-treated (Fe-BMM) macrophages (data not shown). Comparison Gene Ontology (GO) analysis was further performed to test the biological relevance of genes differing between these conditions.

[5] = 60 μM, LPS-Fe-BMM compared to LPS-BMM

FeCl3-nitrilotriacetate [Fe-NTA]
ROS responses to LPS stimulation [1]: impaired
secretion of IL-6 [2]: impaired secretion
secretion of MCP-1 [2]: impaired secretion
secretion of TNF-α [2]: impaired secretion
CD86 up-regulation in response to TLR4 agonist (LPS) ([3]; BMM cultured with 20 or 60 μM iron, LPS 150 ng/mL overnight): not able to up-regulate CD86
CD86 up-regulation in response to TLR2 agonist (PGN) ([3]; BMM cultured with 20 or 60 μM iron, PGN overnight): not able to up-regulate CD86
CD86 up-regulation in response to TLR3 agonist (poly I:C) ([3]; BMM cultured with 20 or 60 μM iron, poly-IC overnight): not able to up-regulate CD86
macrophage differentiation (cell morphology, CD11b and F4/80 expression) ([3]; BMM differentiated with 20 μM and 60 μM, data not shown): not affected
genes implicated in inflammatory response [4, 5]: downregulated
genes involved in NF-κB responses [4, 5]: down-regulated
expression of genes involved in anti-oxidant responses ([4]; Fe-BMM compared to control cells): Increased expression
expression of genes characterizing M1 or M2 phenotypes ([4]; increased extracellular iron levels): inhibited
